The record followed here is patent US5710124A, “Method for combatting bovine mastitis” (Novartis Corporation, priority 1993, dated 1998).

Ends that are not written are not given here.

Experiment [1] has as its system Staphylococcus aureus Newbold 305. Put plainly: Effect on S. aureus in milk (cfu, percent survival). Particulars: for % survival: 37° C. 30 min. It counts as cell-based. The protocol: Effect of Gallidermin on […] in milk Staphylococcus aureus Newbold 305 was grown in M17 broth (Merck) at 37° C. to an optical density at 600 nm of 1.0. Cells were collected by centrifugation and washed in 20 mM Tris-HCl pH 8.0. The bacterial pellet was resuspended in milk at a density of about 10^7 cells/ml. 1 ml aliquots of this suspension were incubated in eppendorf tubes with various amounts of Nisin, Lacticin 481 and Gallidermin. Incubations were at 37° C. for 30 min. A control with no antimicrobial added was run in parallel. After incubation the samples were centrifuged to obtain the cellular pellet, which was washed 2 times with 1 ml of 20 mM Tris-HCl pH 8.0 and resuspended in 1 ml of this buffer. […] of the appropriate dilutions were plated on M17 agar plates containing 0.5% glucose and incubated overnight at 37° C. Colony forming units (cfu) were determined and percent survival was calculated relative to the control.

The subject of experiment [2] is Streptococcus diacetylactis. Put plainly: MIC plate assay. The format is cell-based. The conditions noted are these: for MIC: S. diacetylactis. On the procedure:
(§1) The MICs (Minimal Inhibitory Concentrations) of Gallidermin against […] and Streptococcus diacetylactis were determined. S. aureus Newbold 305 is a causative agent of Mastitis, S. diacetylactis is used in the manufacture of yoghurt and cheese.
(§2) Appropriate dilutions Gallidermin (300, 100, 30, 10, 3, 1, 0.3, 0.1 µg/ml) were prepared in milk and in M17 broth (Merck) and allowed to stand at room temperature for 30 min.
(§3) Then, […] aliquots of the solutions were spotted on M17 agar plates containing 0.5% of glucose. These plates had been overlaid with softagar (0.5% agarose) seeded with 1% of an A600=1 culture of either S. aureus or S. diacetylactis. The spots were allowed to dry, then the plates were incubated at 30° C. overnight.
(§4) The MICs were determined as the lowest concentration of antimicrobial protein causing the formation of a clear halo in the bacterial lawn.

The test system of another experiment is Staphylococcus aureus. Put plainly: Subclinical bovine mastitis infection model, intramammary treatment. It counts as in vivo, cows. From the text: Preliminary experiments for evaluating the potential of Gallidermin, Epidermin or of their pharmaceutically acceptable acid addition salts in subclinical bovine mastitis
Non-infected cows are selected based on non recovery of Staphylococcus aureus from two milk samples taken one day apart from all quarters. Then, 3 quarters are inoculated via the intramammary route using a suspension of Staphylococcus aureus. The 4th quarter serves as control. During the two to four weeks after inoculation, milk samples are taken from all quarters at least 3 times to see whether Staphylococcus aureus can be recovered, and therefore whether the quarter has become infected. A quarter is defined as infected, if Staphylococcus aureus is recovered from at least two of these milk samples. Treatments are assigned randomly to infected quarters and injected via the intramammary route. Milk samples are taken daily until a minimum of 14 days after the last treatment. A quarter is considered as cured if milk samples from that quarter become negative (i.e., no Staphylococcus aureus is recovered) within 7 days after the last treatment and stay negative throughout the 14 day sampling period.
This experimental model is used to have a fixed framework on which to evaluate treatments. To work with Staphylococcus aureus has the advantage that it is the most difficult Gram positive bacterium to treat and one of the most important bacteria causing bovine mastitis. Therefore, cure rates should be expected to be lower than for other Gram positive bacteria, such as Streptococci and coagulase-negative Staphylococci.
In addition, the infection is mild as it should be for subclinical mastitis.
To optimize work load in relation to man power, 8 to 16 cows are enrolled in each trial. Trials normally last 5 weeks.

A further experiment has as its system S. aureus Newbold 305. The experiment in a line: MIC plate assay. It counts as cell-based, Staphylococcus aureus. On the procedure: as §1, §2, §3, §4

For Lacticin 481, the “activity against Staphylococcus aureus in the presence of milk” value (shortened to “activity against Staphylococcus aureus”) in experiment [1] was “strongly inhibited”. Further, the “% survival” value in experiment [1] (1 µg/ml) is 74%; in experiment [1] (3 µg/ml), 51%; in experiment [1] (10 µg/ml), 36%; in experiment [1] (30 µg/ml), 30%; in experiment [1] (100 µg/ml), 12%.
In the case of Nisin, the “activity against Staphylococcus aureus” value in experiment [1] is “strongly inhibited”. The “% survival” value came to 65% in experiment [1] (3 µg/ml), 15% in experiment [1] (10 µg/ml), 1.8% in experiment [1] (30 µg/ml) and 0.2% in experiment [1] (100 µg/ml).
With “Gallidermin (IASKFLCTPGCAKTGSFNSYCC; not fully specified; ends and bridges not checked; also: lantibiotic; UniProt P21838 31-52, looked up) [natural product produced by the microorganism Staphylococcus gallinarum; lanthionine containing peptide]”, the MIC in experiment [2] (dilutions in M17 broth) was determined as 0.3 mug/ml; in experiment [2] (dilutions in milk), 1 mug/ml; with S. aureus Newbold 305 (dilutions in M17 broth), 1 mug/ml; against S. aureus Newbold 305 (dilutions in milk), 0.3 mug/ml. In experiment [2] (milk and M17 broth), the “activity against Streptococcus diacetylactis in milk versus broth” value is “comparable activities”. In experiment [1], the “activity against Staphylococcus aureus” value is given as “retains a high specific activity”. For the same substance, the “% survival” value in experiment [1] (0.3 µg/ml) amounted to 29%; in experiment [1] (1 µg/ml), 12%; in experiment [1] (3 µg/ml), 1%; in experiment [1] (10 µg/ml), 0.01%. The “% of treated group positive” value is reported as 93% in the experiment with Staphylococcus aureus (3 × 1 mg, 27 qutrs, day 0 (before treatment)); 37% in the experiment on Staphylococcus aureus (3 × 1 mg, 27 qutrs, day 1); 11% with Staphylococcus aureus (3 × 1 mg, 27 qutrs, day 2); 26% in the experiment with Staphylococcus aureus (3 × 1 mg, 27 qutrs, day 3); 56% with Staphylococcus aureus (3 × 1 mg, 27 qutrs, day 4); 59% in the experiment on Staphylococcus aureus (3 × 1 mg, 27 qutrs, day 5). The “% of treated group positive” value in the experiment with Staphylococcus aureus (3 × 1 mg, 27 qutrs, day 7) stood at 56%; in the experiment on Staphylococcus aureus (3 × 1 mg, 27 qutrs, day 8), 56%; with Staphylococcus aureus (3 × 1 mg, 27 qutrs, day 9), 52%; in the experiment on Staphylococcus aureus (3 × 1 mg, 27 qutrs, day 10) it was 56%; in the experiment on Staphylococcus aureus (3 × 1 mg, 27 qutrs, day 11), 56%; with Staphylococcus aureus (3 × 1 mg, 27 qutrs, day 12), 52%. Besides, the “% of treated group positive” value amounted to 48% in the experiment on Staphylococcus aureus (3 × 1 mg, 27 qutrs, day 14); 52% in the experiment with Staphylococcus aureus (3 × 1 mg, 27 qutrs, day 15); 96% with Staphylococcus aureus (14 × 0.1 mg, 24 qutrs, day 0 (before treatment)); 88% in the experiment with Staphylococcus aureus (14 × 0.1 mg, 24 qutrs, day 1); 88% with Staphylococcus aureus (14 × 0.1 mg, 24 qutrs, day 2); 71% in the experiment on Staphylococcus aureus (14 × 0.1 mg, 24 qutrs, day 3). Moreover, the “% of treated group positive” value in the experiment with Staphylococcus aureus (14 × 0.1 mg, 24 qutrs, day 4) was found to be 58%; in the experiment on Staphylococcus aureus (14 × 0.1 mg, 24 qutrs, day 5), 67%; in the experiment with Staphylococcus aureus (14 × 0.1 mg, 24 qutrs, day 7), 50%; in the experiment with Staphylococcus aureus (14 × 0.1 mg, 24 qutrs, day 8) it was 67%; in the experiment with Staphylococcus aureus (14 × 0.1 mg, 24 qutrs, day 9), 71%; with Staphylococcus aureus (14 × 0.1 mg, 24 qutrs, day 10), 88%. Also, the “% of treated group positive” value in the experiment on Staphylococcus aureus (14 × 0.1 mg, 24 qutrs, day 11) turned out to be 83%; in the experiment with Staphylococcus aureus (14 × 0.1 mg, 24 qutrs, day 12), 88%; in the experiment on Staphylococcus aureus (14 × 0.1 mg, 24 qutrs, day 14) it was 79%; in the experiment on Staphylococcus aureus (14 × 0.1 mg, 24 qutrs, day 15), 88%; in the experiment on Staphylococcus aureus (14 × 0.1 mg, 24 qutrs, day 16) it was 83%; in the experiment on Staphylococcus aureus (14 × 0.1 mg, 24 qutrs, day 17), 83%. Moreover, the “% of treated group positive” value in the experiment on Staphylococcus aureus (14 × 0.1 mg, 24 qutrs, day 19) stood at 79%; in the experiment with Staphylococcus aureus (14 × 0.1 mg, 24 qutrs, day 21), 83%.
